Assay results as given in ChEMBL document CHEMBL1148455, “Synthesis and use of novel ether phospholipid enantiomers to probe the molecular basis of the antitumor Effects of alkyllysophospholipids: correlation of differential activation of c-Jun NH(2)-terminal protein kinase with antiproliferative effects in neuronal tumor cells” (2004).
Calls of active or inactive are those of the source. The rule behind the calls is not given here.

Legend:
T47D [1] = test: Percentage viability of compound against T47D cell line; NE means No effect; format: functional, cell-based; settings: Homo sapiens
SK-N-MC [2] = test: Percentage viability of compound against SK-N-MC cell line; NE means No effect; format: functional, cell-based; settings: Homo sapiens
MDA-MB-468 [3] = test: Percentage viability of compound against MDA-MB-468 cell line; NE means No effect; format: functional, cell-based; settings: Homo sapiens
MCF7 [4] = test: Percentage viability of compound against MCF-7 cell line; NE means No effect; format: functional, cell-based; settings: Homo sapiens
T47D [5] = test: Percentage viability of compound against T47D cell line; 92-94%; format: functional, Homo sapiens
MCF7 [6] = test: Percentage viability of compound against MCF-7 cell line; format: functional, Homo sapiens
MDA-MB-468 [7] = test: Percentage viability of compound against MDA-MB-468 cell line; 92-94%; format: functional, Homo sapiens
SK-N-MC [8] = test: Percentage viability of compound against SK-N-MC cell line; 92-94%; format: functional, Homo sapiens

| SMILES | Viability (T47D [1]) | Viability (SK-N-MC [2]) | Viability (MDA-MB-468 [3]) | Viability (MCF7 [4]) | Viability (T47D [5]) | Viability (MCF7 [6]) | Viability (MDA-MB-468 [7]) | Viability (SK-N-MC [8]) |
| --- | --- | --- | --- | --- | --- | --- | --- | --- |
| CCCCCCCCCCCCCCCCOC[C@H](/C=C/P(=O)([O-])OCC[N+](C)(C)C)OC | inactive | inactive | inactive | inactive |  |  |  |  |
| CCCCCCCCCCCCCCCCOC[C@@H](/C=C/P(=O)([O-])OCC[N+](C)(C)C)OC |  |  |  |  | <94% | 61% | <94% | <94% |
